Where two headings read alike, the source gives them in different places. Marks after values point to notes of the source that are not given here.
Experiment: logP by HPLC (EEC Directive 79/831 Annex V.A8)
Assay type: physicochemical
[1] = [b] LC-MS, acidic range, pH 2.7, 0.1% aqueous formic acid and acetonitrile
[2] = pH 2.7, given in the preparation examples, read-out: log P (pH 2.7)
[3] = [c] LC-MS, neutral range, pH 7.8, 0.001 molar aqueous ammonium bicarbonate and acetonitrile

| SMILES | logP [1] | also measured |
| --- | --- | --- |
| O=C(Oc1cccc2ccccc12)c1csc(C2CCN(C(=O)Cc3cccc(C(F)(F)F)c3)CC2)n1 [Example 1] | 4.16^[b] | – |
| O=C(OC1CCCCC1)c1csc(C2CCN(C(=O)Cc3cccc(C(F)(F)F)c3)CC2)n1 [Example 2] | 4.21^[b] | – |
| CCCCC(=O)N1CCC(c2nc(C(=O)Oc3cccc4ccccc34)cs2)CC1 [Example 3] | 3.66^[b] | – |
| CCCCC(=O)N1CCC(c2nc(C(=O)OC3CCCCC3)cs2)CC1 [Example 4] | 3.64^[b] | – |
| Cn1ncc(CC(=O)N2CCC(c3nc(C(=O)Oc4cccc5ccccc45)cs3)CC2)c1Cl [Example 5] | 3.00^[b] | – |
| Cn1ncc(CC(=O)N2CCC(c3nc(C(=O)OC4CCCCC4)cs3)CC2)c1Cl [Example 6] | 2.93^[b] | – |
| O=C(Oc1cccc2ccccc12)c1csc(C2CCN(C(=O)Cc3ccsc3)CC2)n1 [Example 7] | 3.46^[b] | – |
| O=C(OC1CCCCC1)c1csc(C2CCN(C(=O)Cc3ccsc3)CC2)n1 [Example 8] | 3.42^[b] | – |
| O=C(OC1CCCCC1)c1csc(C2CCN(C(=O)Cc3cccc(Cl)c3)CC2)n1 [Example 9] | 4.04^[b] | – |
| O=C(Oc1cccc2ccccc12)c1csc(C2CCN(C(=O)Cc3cccc(Cl)c3)CC2)n1 [Example 10] | 4.01^[b] | – |
| O=C(Oc1cccc2ccccc12)c1csc(C2CCN(C(=O)Cc3cc(C(F)(F)F)ccc3Cl)CC2)n1 [Example 11] | 4.56^[b] | – |
| O=C(OC1CCCCC1)c1csc(C2CCN(C(=O)Cc3cc(C(F)(F)F)ccc3Cl)CC2)n1 [Example 12] | 4.64^[b] | – |
| O=C(OC1CCCCC1)c1csc(C2CCN(C(=O)Cc3cc(C(F)(F)F)ccc3Br)CC2)n1 [Example 13] | 4.75^[b] | – |
| O=C(OC1CCCCC1)c1csc(C2CCN(C(=O)Cc3cc(Cl)ccc3Cl)CC2)n1 [Example 14] | 4.49^[b] | – |
| O=C(OC1CCCCC1)c1csc(C2CCN(C(=O)Cc3cc(Br)ccc3Br)CC2)n1 [Example 15, Cyclohexyl 2-{1-[(2,5-dibromophenyl)acetyl]piperidin-4-yl}-1,3-thiazole-4-carboxylate] | – | chromatographic logP [2]: 4.72 |
| O=C(OC1CCCCC1)c1csc(C2CCN(C(=O)Cc3cc(C(F)(F)F)ccc3C(F)(F)F)CC2)n1 [Example 16] | 4.81^[b] | – |
| Cc1ccc(Br)cc1CC(=O)N1CCC(c2nc(C(=O)OC3CCCCC3)cs2)CC1 [Example 17] | 4.47^[b] | – |
| O=C(OC1CCCCC1)c1csc(C2CCN(C(=O)Cc3cc(Cl)ccc3C(F)(F)F)CC2)n1 [Example 18] | 4.68^[b] | – |
| Cc1ccc(I)cc1CC(=O)N1CCC(c2nc(C(=O)OC3CCCCC3)cs2)CC1 [Example 19] | 4.66^[b] | – |
| Cc1cc(CC(=O)N2CCC(c3nc(C(=O)OC4CCCCC4)cs3)CC2)c(C)s1 [Example 20] | 4.24^[b] | – |
| Cc1sc(-c2ccccc2)nc1CC(=O)N1CCC(c2nc(C(=O)OC3CCCCC3)cs2)CC1 [Example 21] | 4.57^[b] | – |
| Cc1oc(-c2ccccc2)nc1CC(=O)N1CCC(c2nc(C(=O)OC3CCCCC3)cs2)CC1 [Example 22] | 4.15^[b] | – |

| SMILES | logP [1] | also measured |
| --- | --- | --- |
| Cc1sc(-c2ccccc2)nc1CC(=O)N1CCC(c2nc(C(=O)Oc3cccc4ccccc34)cs2)CC1 [Example 23] | 4.43^[b] | – |
| Cc1oc(-c2ccccc2)nc1CC(=O)N1CCC(c2nc(C(=O)Oc3cccc4ccccc34)cs2)CC1 [Example 24] | 4.04^[b] | – |
| Cc1cc(CC(=O)N2CCC(c3nc(C(=O)Oc4cccc5ccccc45)cs3)CC2)c(C)s1 [Example 25] | 4.12^[b] | – |
| Cc1nc(CC(=O)N2CCC(c3nc(C(=O)Oc4cccc5ccccc45)cs3)CC2)c(C)s1 [Example 26] | 3.10^[b] | – |
| Cc1nc(CC(=O)N2CCC(c3nc(C(=O)OC4CCCCC4)cs3)CC2)c(C)s1 [Example 27] | 3.02^[b] | – |
| Cc1nc(C)n(CC(=O)N2CCC(c3nc(C(=O)Oc4cccc5ccccc45)cs3)CC2)n1 [Example 28] | 2.17^[b] | – |
| Cc1nc(C)n(CC(=O)N2CCC(c3nc(C(=O)OC4CCCCC4)cs3)CC2)n1 [Example 29] | 2.08^[b] | – |
| O=C(OC1CCCCC1)c1csc(C2CCN(S(=O)(=O)Cc3cc(F)ccc3F)CC2)n1 [Example 30, Cyclohexyl 2-{1-[(2,5-difluorobenzyl)sulphonyl]piperidin-4-yl}-1,3-thiazole-4-carboxylate] | – | chromatographic logP [2]: 4.05 |
| Cc1cc(C(F)(F)F)nn1CC(=O)N1CCN(c2nc(C(=O)OC(C)c3cc(Cl)ccc3Cl)cs2)CC1 (stereo not drawn) [Example 31] | 4.28^[b] | – |
| Cc1cc(C(F)(F)F)nn1CC(=O)N1CCN(c2nc(C(=O)OC3CCCC(C(F)(F)F)C3)cs2)CC1 (stereo not drawn) [Example 32] | – | logP [3]: 3.81^[c] |
| Cc1cc(C(F)(F)F)nn1CC(=O)N1CCN(c2nc(C(=O)Sc3cc(C(F)(F)F)ccc3Cl)cs2)CC1 [Example 33] | 4.51^[b] | – |
| Cc1cc(C(F)(F)F)nn1CC(=O)N1CCN(c2nc(C(=O)SC3CCCCC3)cs2)CC1 [Example 34] | – | logP [3]: 4.43^[c] |
| COc1ccc(COC(=O)c2csc(N3CCN(C(=O)Cn4nc(C(F)(F)F)cc4C)CC3)n2)cc1 [Example 35] | – | logP [3]: 3.19^[c] |
| Cc1cc(C(F)(F)F)nn1CC(=O)N1CCN(c2nc(C(=O)Oc3cccc4cccnc34)cs2)CC1 [Example 36] | 2.85 | logP [3]: 2.83 |
| Cc1cc(C(F)(F)F)nn1CC(=O)N1CCN(c2nc(C(=O)Oc3ccc(Cl)cc3Cl)cs2)CC1 [Example 37] | 3.96 | logP [3]: 3.87 |
| Cc1ccc(C(F)(F)F)cc1OC(=O)N1CCC(c2nc(C(=O)OC3CCCCC3)cs2)CC1 [Example 38, 2-Methyl-5-(trifluoromethyl)phenyl 4-{4-[(cyclohexyloxy)carbonyl]-1,3-thiazol-2-yl}piperidine-1-carboxylate] | – | chromatographic logP [2]: 5.28 |
| Cc1cc(C(F)(F)F)nn1CC(=O)N1CCN(c2nc(C(=O)Oc3ccccc3Cl)cs2)CC1 [Example 39] | 3.46 | logP [3]: 3.41 |
| Cc1cc(C(F)(F)F)nn1CC(=O)N1CCN(c2nc(C(=O)Oc3ccc4ccccc4c3)cs2)CC1 [Example 40] | 3.81 | logP [3]: 3.76 |
| Cc1cc(C(F)(F)F)nn1CC(=O)N1CCN(c2nc(C(=O)OC3Cc4ccccc4C3)cs2)CC1 [Example 41] | 3.64 | logP [3]: 3.56 |
| Cc1cc(C(F)(F)F)nn1CC(=O)N1CCN(c2nc(C(=O)OC3CCc4ccccc4C3)cs2)CC1 (stereo not drawn) [Example 42] | 3.87 | logP [3]: 3.82 |
| Cc1cc(C(F)(F)F)nn1CC(=O)N1CCN(c2nc(C(=O)OC3CCCc4ccccc43)cs2)CC1 (stereo not drawn) [Example 43] | 3.98 | logP [3]: 3.91 |
| Cc1cc(C(F)(F)F)nn1CC(=O)N1CCN(c2nc(C(=O)OCc3ccc(Cl)cc3Cl)cs2)CC1 [Example 44] | 4.12^[c]; 4.12^[b] | logP [3]: 4.12^[c]; 4.12^[b] |

| SMILES | logP [1] | also measured |
| --- | --- | --- |
| Cc1cc(C(F)(F)F)nn1CC(=O)N1CCN(c2nc(C(=O)Sc3ccc4ccccc4c3)cs2)CC1 [Example 45] | 4.33^[c]; 4.33^[b] | logP [3]: 4.33^[c]; 4.33^[b] |
| Cc1cc(C(F)(F)F)nn1CC(=O)N1CCN(c2nc(C(=O)OC3CCCCC3)cs2)CC1 [Example 46, Cyclohexyl 2-(4-{[5-methyl-3-(trifluoromethyl)-1H-pyrazol-1-yl]acetyl}piperazin-1-yl)-1,3-thiazole-4-carboxylate] | – | chromatographic logP ([c] LC-MS, neutral range, pH 7.8, 0.001 molar aqueous ammonium bicarbonate and acetonitrile, read-out: logP): 3.68; chromatographic logP [2]: 3.69 |
| Cc1cc(C(F)(F)F)nn1CC(=O)N1CCN(c2nc(C(=O)Sc3ccc(Cl)cc3Cl)cs2)CC1 [Example 47] | 4.49 | logP [3]: 4.5 |
| Cc1cc(C(F)(F)F)nn1CC(=O)N1CCN(c2nc(C(=O)OCc3ccccc3Cl)cs2)CC1 [Example 48] | 3.64^[c]; 3.64^[b] | logP [3]: 3.64^[c]; 3.64^[b] |
| Cc1cc(C(F)(F)F)nn1CC(=O)N1CCN(c2nc(C(=O)SCc3ccccc3Cl)cs2)CC1 [Example 49] | 4.29 | logP [3]: 4.32 |
| Cc1cc(C(F)(F)F)nn1CC(=O)N1CCN(c2nc(C(=O)SCc3ccc(Cl)cc3Cl)cs2)CC1 [Example 50] | 4.79 | logP [3]: 4.87 |
| Cc1cc(C(F)(F)F)nn1CC(=O)N1CCN(c2nc(C(=O)OCc3c(F)cccc3F)cs2)CC1 [Example 51] | 3.28 | logP [3]: 3.33 |
| O=C(OC1CCCCC1)c1csc(C2CCN(C(=O)Cc3nc(C(F)(F)F)ccc3Cl)CC2)n1 [Example 52] | 4.08^[b] | – |
| Cc1cc(C(F)(F)F)nn1CC(=O)N1CCN(c2nc(C(=O)OCc3ccc(F)cc3F)cs2)CC1 [Example 53] | 3.42 | logP [3]: 3.45 |
| Cc1cc(C(F)(F)F)nn1CC(=O)N1CCN(c2nc(C(=O)OC(C)C3CCCCC3)cs2)CC1 (stereo not drawn) [Example 54] | 4.4 | logP [3]: 4.46 |
| O=C(OC1CCCCC1)c1csc(C2CCN(C(=O)C(=O)c3cccs3)CC2)n1 [Example 55] | 3.46^[b] | – |
| O=C(OC1CCCCC1)c1csc(C2CCN(C(=O)CC3CCCC(C(F)(F)F)C3)CC2)n1 (stereo not drawn) [Example 56] | 4.58^[b] | – |
| O=C(OC1CCCCC1)c1csc(C2CCN(C(=O)CCCC(F)(F)C(F)(F)F)CC2)n1 [Example 57] | 4.22^[b] | – |
| CCCCCCC(=O)N1CCC(c2nc(C(=O)OC3CCCCC3)cs2)CC1 [Example 58] | 4.51^[b] | – |
| Cc1ccc(C)c(NC(=O)N2CCC(c3nc(C(=O)OC4CCCCC4)cs3)CC2)c1 [Example 59, Cyclohexyl 2-{1-[(2,5-dimethylphenyl)carbamoyl]piperidin-4-yl}-1,3-thiazole-4-carboxylate] | – | chromatographic logP [2]: 3.82 |
| O=C(OC1CCCCC1)c1csc(C2CCN(C(=O)C(=O)c3ccco3)CC2)n1 [Example 60] | 3.07^[b] | – |
| O=C(OC1CCCCC1)c1csc(C2CCN(C(=O)Nc3cc(C(F)(F)F)ccc3Cl)CC2)n1 [Example 61] | 4.76^[b] | – |
| Cc1ccc(Cl)c(NC(=O)N2CCC(c3nc(C(=O)OC4CCCCC4)cs3)CC2)c1 [Example 62] | 4.30^[b] | – |
| Cc1ccc(C)c(NC(=S)N2CCC(c3nc(C(=O)OC4CCCCC4)cs3)CC2)c1 [Example 63] | 4.17^[b] | – |
| Cc1ccc(F)c(NC(=O)N2CCC(c3nc(C(=O)OC4CCCCC4)cs3)CC2)c1 [Example 64] | 3.81^[b] | – |

Reference: US8501781B2 (priority 2009, dated 2013)
